Test results as given in article PMC8128204, “Development of 3-methyl/3-(morpholinomethyl)benzofuran derivatives as novel antitumor agents towards non-small cell lung cancer cells” (Journal of Enzyme Inhibition and Medicinal Chemistry, 2021).
In brackets after ≈: the same amount, converted by molar mass. Read-outs that look alike come from different tables or passages of the source.

Columns and labels:
A549 cells [1] = assay: Annexin V-FITC/PI apoptosis assay, A549; format: cell-based, human; conditions: A549, at IC50 concentration; control 1.37%
Protocol: The apoptotic effect of the three benzofurans (4b, 15a and 16a) was evaluated using Annexin VFITC/PI (AV/PI) dual staining assay to validate if their observed cytotoxic effect is due to non-specific necrosis or physiological apoptosis. […] Moreover, the apoptotic effects of 3-(morpholinomethyl)benzofuran derivatives 15a and 16a were evaluated in NCI-H23 cancer cell line.
(§1) Lung cancer A549 cells were treated with benzofuran 4b, whereas NCI-H23 cells were treated […]
(§2) twice with ice-cold phosphate buffered saline (PBS). Subsequently, the treated cells were collected by centrifugation, fixed in ice-cold 70% (v/v) ethanol, washed with PBS, re-suspended with 100 μg/mL RNase, stained with 40 μg/mL PI, and analyzed by flow cytometry using FACS Calibur (Becton Dickinson, BD, Franklin Lakes, NJ, USA). The cell cycle distributions were calculated using CellQuest software 5.1 (Becton Dickinson).
3. Annexin V-FITC Apoptosis Assay […]
Cells were then rinsed in binding buffer and resuspended in 150 μL of binding buffer with the addition of 1 μL of DAPI (1 μg/μL in PBS). Cells were then analyzed using the flow cytometer BD FACS Canto II and the results were interpreted with FlowJo7.6.4 software (Tree Star, Ashland, 4. VEGFR-2 Kinase Inhibitory Activity […]

VEGFR-2 = VEGFR-2 (Homo sapiens, UniProt P35968); assay: VEGFR-2 kinase inhibitory assay (VEGFR2(KDR) Kinase Assay Kit)
VEGFR-2, sequence (P35968 20-1356): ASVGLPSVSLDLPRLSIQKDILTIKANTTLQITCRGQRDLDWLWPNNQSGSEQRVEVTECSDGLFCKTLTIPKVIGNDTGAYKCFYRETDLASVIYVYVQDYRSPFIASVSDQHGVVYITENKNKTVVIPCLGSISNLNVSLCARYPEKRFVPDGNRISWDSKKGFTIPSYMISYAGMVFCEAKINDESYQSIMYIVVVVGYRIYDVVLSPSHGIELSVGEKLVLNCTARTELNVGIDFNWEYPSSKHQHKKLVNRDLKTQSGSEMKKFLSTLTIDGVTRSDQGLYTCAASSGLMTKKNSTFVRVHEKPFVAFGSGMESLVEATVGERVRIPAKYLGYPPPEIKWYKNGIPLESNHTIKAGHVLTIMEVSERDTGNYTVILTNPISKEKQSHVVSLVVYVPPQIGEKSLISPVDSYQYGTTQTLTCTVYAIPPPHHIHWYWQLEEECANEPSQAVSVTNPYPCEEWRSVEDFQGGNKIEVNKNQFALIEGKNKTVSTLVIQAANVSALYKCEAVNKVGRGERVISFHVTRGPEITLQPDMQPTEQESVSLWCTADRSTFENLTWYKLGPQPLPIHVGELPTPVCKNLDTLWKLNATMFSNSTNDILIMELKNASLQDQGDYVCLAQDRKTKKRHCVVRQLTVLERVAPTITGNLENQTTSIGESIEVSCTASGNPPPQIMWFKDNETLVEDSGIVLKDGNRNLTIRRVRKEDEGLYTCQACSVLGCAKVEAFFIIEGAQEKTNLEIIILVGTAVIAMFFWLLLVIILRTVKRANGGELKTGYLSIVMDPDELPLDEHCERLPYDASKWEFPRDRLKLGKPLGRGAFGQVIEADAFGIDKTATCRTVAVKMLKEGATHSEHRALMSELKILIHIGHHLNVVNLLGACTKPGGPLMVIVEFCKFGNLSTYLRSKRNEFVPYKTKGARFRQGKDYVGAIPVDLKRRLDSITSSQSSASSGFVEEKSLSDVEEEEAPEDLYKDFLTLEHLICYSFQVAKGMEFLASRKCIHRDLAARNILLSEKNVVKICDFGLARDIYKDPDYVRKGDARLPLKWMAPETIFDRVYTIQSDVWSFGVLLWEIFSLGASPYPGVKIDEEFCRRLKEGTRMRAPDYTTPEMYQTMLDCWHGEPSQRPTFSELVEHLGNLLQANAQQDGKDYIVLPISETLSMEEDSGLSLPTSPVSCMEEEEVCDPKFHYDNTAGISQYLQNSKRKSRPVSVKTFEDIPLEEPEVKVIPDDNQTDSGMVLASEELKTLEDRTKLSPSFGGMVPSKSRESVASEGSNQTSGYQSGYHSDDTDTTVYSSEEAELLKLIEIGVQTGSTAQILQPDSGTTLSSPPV
Text: CA, USA), according to the manufacturer’s instructions.

NCI-H23 cells = assay: MTT anti-proliferative assay, NCI-H23; format: cell-based, human; conditions: Homo sapiens, NCI-H23, 48 h, mean ± SD of three experiments
Protocol: (§3) The antiproliferative activity of the synthesised derivatives of the 3-methylbenzofuran series (4a–d, 6a–c, 8a–c and 11) and the 3-(morpholinomethyl)benzofuran series (15a–c, 16a–b, 17a–b and 18) was evaluated against non-small cell lung carcinoma (NSCLC) A549 and NCI-H23 cell lines, following the procedures of the MTT assay. […] 1. Anti-proliferative action toward human […] cell lines […]
(§4) The two examined human non-small cell lung carcinoma cell lines (A549 and NCI-H23) have been obtained from American Type Culture Collection (ATCC). The cells were maintained in Dulbecco's modified Eagle's medium (DMEM) supplemented with 10% heat inactivated fetal calf serum (GIBCO), penicillin (100 U/ml) and streptomycin (100 µg/ml) at 37 °C in humidified atmosphere containing 5% CO2. […]
(§5) flask in 5 ml of culture medium. The anti-proliferative activity of the tested 3-methylbenzofurans (4a-d, 6a-c, 8a-c and 11) and 3-(morpholinomethyl)benzofurans (15a-c, 16a-b, 17a-b and 18) measured in vitro using the MTT assay. Briefly, cells were plated out in 96-well microtiter plate (0.5X10^4 cells/well) and incubated for 24 h before treatment with the tested benzofurans to allow cells to attach to the bottom of the well of the plate. Tested benzofuranswere were dissolved in DMSO at 1 mg/ml immediately before use and diluted to the appropriate volume just before addition to the cell culture. […]
(§6) added to the cells (three wells were prepared for each individual dose). Cells were incubated with […]
(§7) At the end of exposure, MTT […]
(§8) solution in PBS (5 mg/ml) was then added to all well including no cell blank and left to incubate for 90 min. The formation of formazan crystals were visually confirmed using phase contract microscopy. DMSO (100 µl/well) was added to dissolve the formazan crystals with shaking for 10 min after which the absorbance was read at 590 nm against no cell blanks on a microplate reader.
(§9) The relation between percent of surviving fraction and log drug concentration is plotted to get the survival curve for each cell line.

A549 cells [2] = assay: Cell cycle analysis (PI flow cytometry), A549; format: cell-based, human; conditions: A549, 24 h at IC50 concentration
Protocol: as §1
as §2, with “Dickinson). […]” for “Dickinson).”

WI-38 cell line = assay: Cytotoxic activity against non-tumorigenic WI-38 cell line; format: cell-based, human
Text: Antiproliferative agents are designed to inhibit the cellular growth of tumour cells selectively, while sparing the normal cells.

[3] = test system: M. tuberculosis ATCC 27294; assay: Microplate Alamar Blue Assay, anti-tubercular activity; format: cell-based; conditions: MABA, 7 days
A549 cells [4] = assay: MTT anti-proliferative assay, A549; format: cell-based, human; conditions: Homo sapiens, A549, 48 h, mean ± SD of three experiments
Protocol: as §3, §4, §5, §6, §7, §8, §9

COc1ccc(NC(=S)NNC(=O)c2oc3ccccc3c2C)cc1 [Compound 4b, N-(4-Methoxyphenyl)-2-(3-methylbenzofuran-2-carbonyl)hydrazine-1-carbothioamide]
apoptosis (total) (A549 cells [1]): 42.05%
melting point: 190 to 193 °C
IC50 (VEGFR-2): 0.078 ± 0.0046 µM
IC50 (NCI-H23 cells): 5.9 ± 0.29 µM
S phase, fold vs control (A549 cells [2]; attenuated): 0.46 fold
G2/M phase cell population, fold vs control (A549 cells [2]; augmentation): 2.67 fold
sub-G1 phase cell population, fold vs control (A549 cells [2]; augmentation): 21.76 fold
G0–G1 phase, fold vs control (A549 cells [2]; reduced): 0.67 fold
Mean tumour selectivity (WI-38 cell line; S.I. WI-38/A549 and NCI-H23): 5.3
IC50 (WI-38 cell line; non-tumorigenic human lung WI-38 cell line): 19.5 ± 1.18 µM
MIC [3]: 500 µg/mL (≈ 1410 µM)
MIC ([3]; Mycobacterium tuberculosis, ATCC27294, 168 h, read-out: MIC): 250 µg/mL (≈ 703 µM)
IC50 (A549 cells [4]): 1.48 ± 0.08 µM
